# According to PMC12302339 (Journal of Advanced Research, 2024):
# Assays:
# [1] = tested on: A549, human non-small cell lung cancer cells; assay: cells; type: cell-based
# p42 = type: binding, Xanthomonas oryzae pv. oryzae
# in vivo = details: Brachydanio rerio (zebrafish)
# rice = details: in vivo
structure (smiles),measurement,setting,value
"O=c1[nH]cc(F)c(=O)[nH]1 [5-FU, 5-fluorouracil, reference compound]",IC50,[1],1.42 µM
"C#CCNc1ncnc2ccccc12 [NP, N-(prop-2-yn-1-yl)quinazolin-4-amine]",proteome labeling in situ or in vitro,p42,failed to label any proteins
"C=CC(=O)Nc1ncnc2ccc(Br)cc12 [compound 7a, N-(6-bromoquinazolin-4-yl)acrylamide]",LC50 at 48 h,in vivo,0.53 µg/mL
same,LC50 at 72 h,in vivo,0.48 µg/mL
same,LC50 at 96 h,in vivo,0.48 µg/mL
same,phytotoxicity on rice leaves,rice,no signs of damage
same,competition of probe P1 labeling of p42,p42,dose-dependently competed
same,IC50,[1],23.1 µM
"C#CCN(C(=O)C=C)c1ncnc2ccc(Br)cc12 [probe P1, N-(6-bromoquinazolin-4-yl)-N-(prop-2-yn-1-yl)acrylamide]",proteome labeling in situ or in vitro,p42,prominent labeling
same,time after which p42 was visualized,p42,5 min
same,time to complete labeling of p42,p42,2 h
